These results are taken from patent publication US12378186B2, “Inhibitors of meprin α and β” (VIVORYON THERAPEUTICS N.V., priority 2016, dated 2025).

As a reminder, the Ki is a dissociation constant, usually derived from enzyme kinetics or from competition with a known ligand. In general, IC50 refers to the concentration that gives 50% inhibition.

Like-named read-outs stand apart in the source and are kept apart here.

One experiment has as its target T1, hMeprin β (Homo sapiens, UniProt Q16820).
T1 sequence (Q16820 62-701): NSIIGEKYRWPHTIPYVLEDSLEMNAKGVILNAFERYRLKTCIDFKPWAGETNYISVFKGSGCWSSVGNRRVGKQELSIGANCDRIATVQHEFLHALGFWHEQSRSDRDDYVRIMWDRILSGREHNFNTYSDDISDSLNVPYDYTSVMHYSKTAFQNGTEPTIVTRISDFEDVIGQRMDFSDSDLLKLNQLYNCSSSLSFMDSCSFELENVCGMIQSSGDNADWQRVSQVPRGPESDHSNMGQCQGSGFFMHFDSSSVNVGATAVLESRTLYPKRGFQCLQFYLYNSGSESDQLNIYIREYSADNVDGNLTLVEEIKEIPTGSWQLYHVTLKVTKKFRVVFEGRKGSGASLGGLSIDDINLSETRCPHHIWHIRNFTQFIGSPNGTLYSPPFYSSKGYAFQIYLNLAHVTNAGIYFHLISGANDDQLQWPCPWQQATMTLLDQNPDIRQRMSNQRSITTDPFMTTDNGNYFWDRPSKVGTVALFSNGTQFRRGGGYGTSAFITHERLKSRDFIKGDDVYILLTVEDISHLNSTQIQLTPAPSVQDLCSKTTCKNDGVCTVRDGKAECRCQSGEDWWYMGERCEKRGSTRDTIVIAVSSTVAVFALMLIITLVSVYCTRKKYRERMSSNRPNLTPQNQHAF
Description: Enzymatic assay, cleavage of internally quenched peptide substrate, hMeprin β. The format is biochemical. The protocol: (§1) A typical assay of 250 μl total volume measured in black 96 well plates consisted of 100 μl buffer, 50 μl enzyme at a final concentration of 5e-8 M to 5e-9 M, 50 μl substrate (0.15 to 80 μM, in buffer, 0.5% DMSO) and 50 μl inhibitor solution (in buffer, 1% DMSO). In case of 125 μl assay volume (black 96 half area well plates) all volumes were cut in half. Enzymatic activity of ADAMs was measured in 384 well plates with 60 μl total assay volume consisting of 20 μl inhibitor, 20 μl buffer, 10 μl enzyme and 10 μl substrate.
(§2) Ki values were assessed combining 4 substrate concentrations (5-40 μM) with at least 5 inhibitor concentrations. […] Initial velocities were determined and converted into concentration units applying a standard curve obtained after complete conversion of different substrate concentrations under assay conditions. All measurements were performed using a fluorescence plate reader (FLUOstar OPTIMA, BMG Labtech) at 30° C. The kinetic parameters were determined at least in duplicates on separate days. The excitation/emission wavelength was 340/420 nm. The kinetic data was evaluated using GraFit software (version 7.0.3, Erithacus Software).
(§3) The following compounds according to the present invention were synthesized using the above general procedures. IC50 refers to the average IC50 values measured as described above, SD (IC50) refers to the standard deviation of the average IC50 values, Ki refers to the average K; values measured as described above, and SD (Ki) to the standard deviation of the average Ki values.

For another experiment, the target named is T2, hMeprin α (Homo sapiens, UniProt Q16819).
T2 sequence (Q16819 66-746): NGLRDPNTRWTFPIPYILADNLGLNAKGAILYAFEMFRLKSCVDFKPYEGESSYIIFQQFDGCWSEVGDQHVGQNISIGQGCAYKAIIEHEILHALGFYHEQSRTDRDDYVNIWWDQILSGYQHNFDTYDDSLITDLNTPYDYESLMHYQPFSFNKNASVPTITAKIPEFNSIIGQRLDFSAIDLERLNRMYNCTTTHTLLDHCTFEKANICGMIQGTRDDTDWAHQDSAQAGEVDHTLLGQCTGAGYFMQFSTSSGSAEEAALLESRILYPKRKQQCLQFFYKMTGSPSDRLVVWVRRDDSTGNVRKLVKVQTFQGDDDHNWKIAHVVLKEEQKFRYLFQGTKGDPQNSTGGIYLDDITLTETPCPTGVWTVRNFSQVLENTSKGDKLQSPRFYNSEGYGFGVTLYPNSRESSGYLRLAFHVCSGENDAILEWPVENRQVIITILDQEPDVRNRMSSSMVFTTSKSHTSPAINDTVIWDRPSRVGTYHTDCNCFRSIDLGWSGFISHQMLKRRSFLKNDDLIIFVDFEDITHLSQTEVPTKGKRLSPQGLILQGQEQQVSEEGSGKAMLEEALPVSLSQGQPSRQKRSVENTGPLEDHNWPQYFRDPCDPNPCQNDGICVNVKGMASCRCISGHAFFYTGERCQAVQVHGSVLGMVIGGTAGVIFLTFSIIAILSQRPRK
The experiment is described as follows: biochemical. The format is biochemical. The protocol:
as §1, §2, §3

The mark [1] stands for this setting: average IC50, 10 μM substrate, 30° C., 40 mM Tris pH 8.0, read-out: Meprin Beta IC50.
Setting [2] is: average IC50, 10 μM substrate, 30° C., 40 mM HEPES pH 7.4, read-out: Meprin Alpha IC50.
Setting [3] is: average Ki, 4 substrate concentrations (5-40 μM), 30° C., 40 mM HEPES pH 7.4, read-out: Meprin Alpha Ki.

On to `O=C(CN(Cc1ccc(Cl)cc1)Cc1cccc(C(=O)O)c1)NO` [Example 20, 3-[[(4-Chlorophenyl)methyl-[2-(hydroxyamino)-2-oxo-ethyl]amino]methyl]benzoic acid], for which the Ki at hMeprin β is 33 nM; on hMeprin α (setting [3]) it was 796 nM. Also, the IC50 on hMeprin β (setting [1]) stood at 76 nM; at hMeprin α (setting [2]), 1800 nM.

As to `O=C(CN(Cc1ccc(F)cc1)Cc1cccc(C(=O)O)c1)NO` [Example 21, 3-[[(4-Fluorophenyl)methyl-[2-(hydroxyamino)-2-oxo-ethyl]amino]methyl]benzoic acid], the inhibition constant Ki on hMeprin β and at hMeprin α was 1680 nM each time. The values for the IC50 on hMeprin β (setting [1]) and on hMeprin α were 177 nM and 4220 nM, respectively.

In the case of `O=C(CN(Cc1cccc(C(=O)O)c1)Cc1ccc2c(c1)OCO2)NO` [Example 22, 3-[[1,3-Benzodioxol-5-ylmethyl-[2-(hydroxy-amino)-2-oxo-ethyl]amino]-methyl]benzoic acid], the Ki is 105 nM on hMeprin β and 606 nM at hMeprin α (setting [3]). Also, at hMeprin α (setting [2]), the IC50 stood at 1430 nM.

Take `COc1ccc(CN(CC(=O)NO)Cc2ccc3c(c2)OCO3)cc1` [Example 23]: the concentration for half-maximal inhibition (IC50) against hMeprin β worked out at 20000 nM; on hMeprin α (setting [2]) it was 1680 nM.

In the case of `COc1ccc(CN(CC(=O)NO)Cc2ccc(C)cc2)cc1` [Example 24, 2-[(4-Methoxyphenyl)methyl-(p-tolylmethyl)-amino]ethanehydroxamic acid], the values for the IC50 on hMeprin β and at hMeprin α (setting [2]) were 60900 nM and 2330 nM, respectively.

Consider `COc1ccc(CN(CC(=O)NO)Cc2ccc(F)cc2)cc1` [Example 25, 2-[(4-fluorophenyl)methyl-[(4-methoxyphenyl)-methyl]amino]ethanehydroxamic acid], for which the results for the IC50 at hMeprin β and at hMeprin α (setting [2]) were 80400 nM and 4130 nM, respectively.

Turning to `COc1ccc(CN(CC(=O)NO)Cc2ccc(Cl)cc2)cc1` [Example 26, 2-[(4-Chlorophenyl)methyl-[(4-methoxyphenyl)-methyl]amino]ethanehydroxamic acid], the figures for the IC50 at hMeprin β and at hMeprin α (setting [2]) were 53400 nM and 1990 nM, respectively.

As to `COc1ccc(CN(CC(=O)NO)Cc2cccc(OC)c2)cc1` [Example 27, 2-[(3-Methoxyphenyl)methyl-[(4-methoxyphenyl)-methyl]amino]ethanehydroxamic acid], the half-maximal inhibitory concentration (IC50) at hMeprin β was determined as 34500 nM; on hMeprin α (setting [2]), 3200 nM.

`C[C@H](NCc1cccc(C(=O)O)c1)C(=O)NO` [Example 28, 3-[[[(1S)-2-(Hydroxyamino)-1-methyl-2-oxo-ethyl]amino]methyl]benzoic acid] came in with a Ki on hMeprin β of 3100 nM. Further, the IC50 amounted to 4200 nM on hMeprin β (setting [1]) and 16700 nM on hMeprin α (setting [2]).

As for `CC(C)[C@H](NCc1cccc(C(=O)O)c1)C(=O)NO` [Example 29, 3-[[[(1S)-1-(Hydroxycarbamoyl)-2-methyl-propyl]amino]methyl]benzoic acid], the values for the IC50 on hMeprin β (setting [1]) and at hMeprin α (setting [2]) were 15800 nM and 44400 nM, respectively.

Turning to `O=C(O)c1cccc(CN[C@@H](Cc2ccccc2)C(=O)NO)c1` [Example 30, 3-[[[(1S)-1-Benzyl-2-(hydroxyamino)-2-oxo-ethyl]amino]methyl]benzoic acid], the IC50 worked out at 15500 nM at hMeprin β (setting [1]) and 10200 nM at hMeprin α (setting [2]).

Consider `COc1ccc(CN(CCC(=O)NO)Cc2cccc(C(=O)O)c2)cc1` [Example 31, 3-[[[3-(Hydroxyamino)-3-oxo-propyl]-[(4-methoxyphenyl)methyl]amino]-methyl]benzoic acid], for which the inhibitory constant (Ki) came to 165 nM on hMeprin β and 87 nM on hMeprin α (setting [3]). For the same compound, the 50% inhibitory concentration (IC50) on hMeprin β (setting [1]) is 643 nM; at hMeprin α (setting [2]), 233 nM.

Consider `CC(C)(NCc1cccc(C(=O)O)c1)C(=O)NO` [Example 32, 3-[[[2-(Hydroxyamino)-1,1-dimethyl-2-oxo-ethyl]amino]methyl]benzoic acid], for which the results for the IC50 on hMeprin β and on hMeprin α (setting [2]) were 39300 nM and 265000 nM, respectively.

With `C[C@@H](NCc1cccc(C(=O)O)c1)C(=O)NO` [Example 33, 3-{[[(1R)-2-(Hydroxyamino)-1-methyl-2-oxo-ethyl]amino]methyl]benzoic acid], the inhibition constant (Ki) on hMeprin β turned out to be 2580 nM. Besides, the results for the half-inhibitory concentration (IC50) on hMeprin β (setting [1]) and on hMeprin α (setting [2]) were 4260 nM and 45100 nM, respectively.

As to `CC(C)[C@@H](NCc1cccc(C(=O)O)c1)C(=O)NO` [Example 34, 3-[[[(1R)-1-(Hydroxycarbamoyl)-2-methyl-propyl]amino]methyl]benzoic acid], the values for the half-maximal inhibitory concentration (IC50) at hMeprin β (setting [1]) and on hMeprin α (setting [2]) were 11800 nM and 30000 nM, respectively.

`O=C(O)c1cccc(CN[C@H](Cc2ccccc2)C(=O)NO)c1` [Example 35, 3-[[[(1R)-1-Benzyl-2-(hydroxyamino)-2-oxo-ethyl]amino]methyl]benzoic acid] showed an inhibitory constant (Ki) on hMeprin β of 1360 nM. Besides, the half-maximal inhibitory concentration (IC50) was 2910 nM on hMeprin β (setting [1]) and 2650 nM at hMeprin α (setting [2]).

With `O=C(O)c1cccc(CN[C@@H](C(=O)NO)c2ccccc2)c1` [Example 36, 3-[[[(1R)-2-(Hydroxyamino)-2-oxo-1-phenyl-ethyl]amino]methyl]benzoic acid], the IC50 on hMeprin β (setting [1]) was found to be 11600 nM; at hMeprin α (setting [2]) it was 21700 nM.

Regarding `O=C(O)c1cccc(CN[C@H](C(=O)NO)c2ccccc2)c1` [Example 37, 3-[[[(1S)-2-(Hydroxyamino)-2-oxo-1-phenyl-ethyl]amino]methyl]benzoic acid], the IC50 on hMeprin β (setting [1]) was 12200 nM; at hMeprin α (setting [2]) it was 26300 nM.

For `COc1ccc(CN(CCCC(=O)NO)Cc2cccc(C(=O)O)c2)cc1` [Example 38, 3-[[[4-(hydroxyamino)-4-oxo-butyl]-[(4-methoxyphenyl)methyl]amino]-methyl]benzoic acid], the results for the Ki at hMeprin β and at hMeprin α (setting [3]) were 225 nM and 948 nM, respectively. The IC50 at hMeprin β (setting [1]) stood at 742 nM; at hMeprin α (setting [2]), 2610 nM.

In the case of `O=C(O)CC[C@H](NCc1cccc(C(=O)O)c1)C(=O)NO` [Example 39, 3-[[[(1S)-3-carboxy-1-(hydroxylcarbamoyl)-propyl]amino]methyl]benzoic acid], the Ki worked out at 325 nM on hMeprin β and 2530 nM on hMeprin α (setting [3]). The results for the 50% inhibitory concentration (IC50) on hMeprin β (setting [1]) and on hMeprin α (setting [2]) were 654 nM and 8660 nM, respectively.

On to `N#Cc1cccc(CN(CC(=O)NO)Cc2cccc(C#N)c2)c1` [Example 40, 2-[bis[(3-cyanophenyl)methyl]amino]-ethanehydroxamic acid], for which the half-inhibitory concentration (IC50) on hMeprin β (setting [1]) is 12000 nM; on hMeprin α (setting [2]) it was 1460 nM. For the same compound, on hMeprin α (setting [3]), the Ki worked out at 521 nM.

In the case of `NC(=O)c1cccc(CN(CC(=O)NO)Cc2cccc(C(N)=O)c2)c1` [Example 41, 3-[[(3-carbamoylphenyl)methyl-[2-(hydroxyamino)-2-oxo-ethyl]amino]methyl]benzamide], the concentration for half-maximal inhibition (IC50) on hMeprin β (setting [1]) came out at 13100 nM; at hMeprin α (setting [2]) it was 2900 nM. The Ki at hMeprin α (setting [3]) stood at 852 nM.

In the case of `COC(=O)c1cccc(CN(CC(=O)NO)Cc2cccc(C(N)=O)c2)c1` [Example 42], the concentration for half-maximal inhibition (IC50) against hMeprin β was found to be 25000 nM; on hMeprin α (setting [2]), 3540 nM. The Ki at hMeprin α (setting [3]) is 1190 nM.

As for `COC(=O)c1cccc(CN(CC(=O)NO)Cc2cccc(C(=O)O)c2)c1` [Example 43], the half-maximal inhibitory concentration (IC50) against hMeprin β was 516 nM; on hMeprin α (setting [2]), 6280 nM. The Ki was found to be 152 nM at hMeprin β and 1740 nM at hMeprin α (setting [3]).
